From patent US9695155B2, “Herbicidal substituted pyrimidinyloxy benzene compounds” (E. I. DU PONT DE NEMOURS AND COMPANY, priority 2013, dated 2017)

Key:
Assay in all cases: Test E postemergence
wild poinsettia = type: in vivo, Euphorbia heterophylla
Excerpt: (§1) Seeds of plant species selected from corn (Zea mays), soybean (Glycine max), velvetleaf (Abutilon theophrasti), lambsquarters (Chenopodium album), wild poinsettia (Euphorbia heterophylla), palmer pigweed (Amaranthus palmeri), waterhemp (common waterhemp, Amaranthus rudis), surinam grass (Brachiaria decumbens), large (Lg) crabgrass (Digitaria sanguinalis), Brazilian crabgrass (Digitaria horizontalis), fall panicum (Panicum dichotomiflorum), giant foxtail (Setaria faberii), green foxtail (Setaria viridis), goosegrass (Eleusine indica), johnsongrass (Sorghum halepense), ragweed (common ragweed, Ambrosia elatior), barnyardgrass (Echinochloa crus-galli), sandbur (southern sandbur, Cenchrus echinatus), arrowleaf sida (Sida rhombifolia), Italian ryegrass (Lolium multiflorum), dayflower (Virginia (VA) dayflower, Commelina virginica), field bindweed (Convolvulus arvensis), morningglory (Ipomoea coccinea), nightshade (eastern black nightshade, Solanum ptycanthum), kochia (Kochia scoparia), yellow nutsedge (Cyperus esculentus), cocklebur (common cocklebur, Xanthium strumarium), smartweed (ladysthumb smartweed, and hairy beggarticks (Bidens pilosa), were planted into a silt loam soil and treated preemergence with test chemicals formulated in a non-phytotoxic solvent mixture which included a surfactant.
(§2) At the same time, plants from these crop and weed species and also horseweed (Canada horseweed, Conyza canadensis), waterhemp_RES1, (ALS & Triazine resistant common waterhemp, Amaranthus rudis), and waterhemp_RES2, (ALS & HPPD resistant common waterhemp, Amaranthus rudis) were planted in pots containing Redi-Earth® planting medium (Scotts Company, 14111 Scottslawn Road, Marysville, Ohio 43041) comprising spaghnum peat moss, vermiculite, wetting agent and starter nutrients were treated with postemergence applications of test chemicals formulated in the same manner. Plants ranged in height from 2 to 18 cm for postemergence treatments (1- to 4-leaf stage). Treated plants and controls were maintained in a greenhouse for 14 to 21 days, after which time all species were compared to controls and visually evaluated. Plant response ratings, summarized in Table E, are based on a scale of 0 to 100 where 0 is no effect and 100 is complete control. A dash (-) response means no test result.

fall panicum = type: in vivo, Panicum dichotomiflorum
Excerpt: as §1, §2

hairy beggarticks = type: in vivo, Bidens pilosa
Excerpt: as §1, §2

[1] = Postemergence, 31 g ai/ha, scale 0 to 100
[2] = Postemergence, 62 g ai/ha, scale 0 to 100
[3] = Postemergence, 125 g ai/ha, scale 0 to 100
[4] = Postemergence, 250 g ai/ha, scale 0 to 100
[5] = postemergence, 16 g ai/ha, scale 0 to 100, 0 no effect, 100 complete control
[6] = postemergence, 8 g ai/ha, scale 0 to 100, 0 no effect, 100 complete control

**Q.** Which “Plant response rating, Poinsettia, Wild” value (wild poinsettia; [1]) does the source give for `FC(F)(F)c1cnn(-c2ccccc2Oc2ncc(Cl)cn2)c1` [Compound 16] here?
**A.** The value was 60.

**Q.** And the “Plant response rating, Poinsettia, Wild” value (wild poinsettia; [2])?
**A.** Its value is 60.

**Q.** What about the “Plant response rating, Poinsettia, Wild” value (wild poinsettia; [3]) of the same molecule?
**A.** Its value is 70.

**Q.** And the “Plant response rating, Poinsettia, Wild” value (wild poinsettia; [4])?
**A.** The value was 80.

**Q.** And the “Plant response rating, Poinsettia, Wild” value (wild poinsettia; [5])?
**A.** The value was 50.

**Q.** What about the “Plant response rating, Panicum, Fall” value (fall panicum; [1]) of the same molecule?
**A.** Its value is 0.

**Q.** And the “Plant response rating, Panicum, Fall” value (fall panicum; [2])?
**A.** Its value is 10.

**Q.** And the “Plant response rating, Panicum, Fall” value (fall panicum; [3])?
**A.** Its value is 20.

**Q.** And the “Plant response rating, Panicum, Fall” value (fall panicum; [4])?
**A.** Its value is 25.

**Q.** What about the “Plant response rating, Panicum, Fall” value (fall panicum; [5]) of the same molecule?
**A.** The value was 0.

**Q.** And the “Plant response rating, Beggarticks” value (hairy beggarticks; [1])?
**A.** The value was 30.

**Q.** And the “Plant response rating, Beggarticks” value (hairy beggarticks; [2])?
**A.** The value was 50.

**Q.** What about the “Plant response rating, Beggarticks” value (hairy beggarticks; [3]) of the same molecule?
**A.** Its value is 50.

**Q.** What about the “Plant response rating, Beggarticks” value (hairy beggarticks; [4]) of the same molecule?
**A.** The value was 60.

**Q.** And the “Plant response rating, Beggarticks” value (hairy beggarticks; [5])?
**A.** Its value is 30.

**Q.** For `Clc1cnc(Oc2cccc(Br)c2-n2cc(Br)cn2)nc1` [Compound 65], which “Plant response rating, Poinsettia, Wild” value (wild poinsettia; [1]) is on record?
**A.** Its value is 20.

**Q.** What about the “Plant response rating, Poinsettia, Wild” value (wild poinsettia; [2]) of the same molecule?
**A.** The value was 20.

**Q.** And the “Plant response rating, Poinsettia, Wild” value (wild poinsettia; [3])?
**A.** Its value is 40.

**Q.** What about the “Plant response rating, Poinsettia, Wild” value (wild poinsettia; [6]) of the same molecule?
**A.** Its value is 15.

**Q.** What about the “Plant response rating, Poinsettia, Wild” value (wild poinsettia; [5]) of the same molecule?
**A.** Its value is 20.

**Q.** What about the “Plant response rating, Panicum, Fall” value (fall panicum; [1]) of the same molecule?
**A.** Its value is 5.

**Q.** And the “Plant response rating, Panicum, Fall” value (fall panicum; [2])?
**A.** The value was 0.

**Q.** And the “Plant response rating, Panicum, Fall” value (fall panicum; [3])?
**A.** The value was 15.

**Q.** And the “Plant response rating, Panicum, Fall” value (fall panicum; [6])?
**A.** Its value is 0.

**Q.** What about the “Plant response rating, Panicum, Fall” value (fall panicum; [5]) of the same molecule?
**A.** Its value is 0.

**Q.** And the “Plant response rating, Beggarticks” value (hairy beggarticks; [1])?
**A.** The value was 40.

**Q.** And the “Plant response rating, Beggarticks” value (hairy beggarticks; [2])?
**A.** Its value is 50.

**Q.** What about the “Plant response rating, Beggarticks” value (hairy beggarticks; [3]) of the same molecule?
**A.** Its value is 50.

**Q.** And the “Plant response rating, Beggarticks” value (hairy beggarticks; [6])?
**A.** Its value is 20.

**Q.** And the “Plant response rating, Beggarticks” value (hairy beggarticks; [5])?
**A.** The value was 35.

**Q.** What does the source list for `Fc1cnc(Oc2ccccc2-n2cc(Br)cn2)nc1` [Compound 10, 2-[2-(4-bromo-1H-pyrazol-1-yl)phenoxy]-5-fluoropyrimidine]?
**A.** pest or weed control at 31 g/ha (wild poinsettia; Euphorbia heterophylla, post-emergence, Postemergence, 31 g ai/ha, scale 0 to 100, read-out: Plant response rating, Poinsettia, Wild): 20%; pest or weed control at 62 g/ha (wild poinsettia; Euphorbia heterophylla, post-emergence, Postemergence, 62 g ai/ha, scale 0 to 100, read-out: Plant response rating, Poinsettia, Wild): 30%; pest or weed control at 125 g/ha (wild poinsettia; Euphorbia heterophylla, post-emergence, Postemergence, 125 g ai/ha, scale 0 to 100, read-out: Plant response rating, Poinsettia, Wild): 30%; pest or weed control at 250 g/ha (wild poinsettia; Euphorbia heterophylla, post-emergence, Postemergence, 250 g ai/ha, scale 0 to 100, read-out: Plant response rating, Poinsettia, Wild): 60%; pest or weed control at 16 g/ha (wild poinsettia; Euphorbia heterophylla, post-emergence, postemergence, 16 g ai/ha, scale 0 to 100, 0 no effect, 100 complete control, read-out: Plant response rating, Poinsettia, Wild): 5%; pest or weed control at 31 g/ha (fall panicum; Panicum dichotomiflorum, post-emergence, Postemergence, 31 g ai/ha, scale 0 to 100, read-out: Plant response rating, Panicum, Fall): 0%; pest or weed control at 62 g/ha (fall panicum; Panicum dichotomiflorum, post-emergence, Postemergence, 62 g ai/ha, scale 0 to 100, read-out: Plant response rating, Panicum, Fall): 0%; pest or weed control at 125 g/ha (fall panicum; Panicum dichotomiflorum, post-emergence, Postemergence, 125 g ai/ha, scale 0 to 100, read-out: Plant response rating, Panicum, Fall): 0%; pest or weed control at 250 g/ha (fall panicum; Panicum dichotomiflorum, post-emergence, Postemergence, 250 g ai/ha, scale 0 to 100, read-out: Plant response rating, Panicum, Fall): 0%; pest or weed control at 16 g/ha (fall panicum; Panicum dichotomiflorum, post-emergence, postemergence, 16 g ai/ha, scale 0 to 100, 0 no effect, 100 complete control, read-out: Plant response rating, Panicum, Fall): 0%; pest or weed control at 31 g/ha (hairy beggarticks; Bidens pilosa, post-emergence, Postemergence, 31 g ai/ha, scale 0 to 100, read-out: Plant response rating, Beggarticks): 30%; pest or weed control at 62 g/ha (hairy beggarticks; Bidens pilosa, post-emergence, Postemergence, 62 g ai/ha, scale 0 to 100, read-out: Plant response rating, Beggarticks): 40%; pest or weed control at 125 g/ha (hairy beggarticks; Bidens pilosa, post-emergence, Postemergence, 125 g ai/ha, scale 0 to 100, read-out: Plant response rating, Beggarticks): 50%; pest or weed control at 250 g/ha (hairy beggarticks; Bidens pilosa, post-emergence, Postemergence, 250 g ai/ha, scale 0 to 100, read-out: Plant response rating, Beggarticks): 80%; pest or weed control at 16 g/ha (hairy beggarticks; Bidens pilosa, post-emergence, postemergence, 16 g ai/ha, scale 0 to 100, 0 no effect, 100 complete control, read-out: Plant response rating, Beggarticks): 10%
